IC50 data for 27 compounds are collected here from US20210261512A1, “NOVEL COMPOUNDS” (INFLAZOME LIMITED, priority 2018, published 2021).

The structures appear in SMILES notation. Where only a bound is given, the exact number is not on record here.

For orientation: IC50 means the midpoint of a concentration-inhibition curve. Read a low IC50 as greater potency.

The target in the assay is NLRP3 (Homo sapiens, UniProt Q96P20). The assay can be described thus: THP-1 cells pyroptosis assay. Type of assay: cell-based. Set-up: Seed THP-1 cells (25,000 cells/well) containing 1.0 μg/ml LPS; host or cells: THP-1. To be noted: LPS 1.0 μg/ml, nigericin 5 μM, resazurin readout, 10 μM top dose (Example 2: top dose of 30 μM). The protocol: THP-1 cells (ATCC #TIB-202) were grown in RPMI containing L-glutamine (Gibco #11835) supplemented with imM sodium pyruvate (Sigma #S8636) and penicillin (100 units/ml)/streptomycin (0.1 mg/ml) (Sigma #P4333) in 10% Fetal Bovine Serum (FBS) (Sigma #F0804). The cells were routinely passaged and grown to confluency (˜10^6 cells/ml). On the day of the experiment, THP-1 cells were harvested and resuspended into RPMI medium (without FBS). The cells were then counted and viability (>90%) checked by Trypan blue (Sigma #T8154). Appropriate dilutions were made to give a concentration of 625,000 cells/ml. To this diluted cell solution was added LPS (Sigma #L4524) to give a 1 μg/ml Final Assay Concentration (FAC). 40 μl of the final preparation was aliquoted into each well of a 96-well plate. The plate thus prepared was used for compound screening.
The following method step-by-step assay was followed for compound screening. • 1. Seed THP-1 cells (25,000 cells/well) containing 1.0 μg/ml LPS in 40 μl of RPMI medium (without FBS) in 96-well, black walled, clear bottom cell culture plates coated with poly-D-lysine (VWR #734-0317) • 2. Add 5 μl compound (8 points four-fold dilution or 8 points half-log dilution, with 10 μM top dose, unless stated otherwise) or vehicle (DMSO 0.1% FAC) to the appropriate wells • 3. Incubate for 3 hrs at 37° C. and 5% CO2 • 4. Add 5 μl nigericin (Sigma #N7143) (FAC 5 μM) to all wells • 5. Incubate for 1 hr at 37° C. and 5% CO2 • 6. At the end of the incubation period, spin plates at 300×g for 3 mins and remove supernatant • 7. Then add 50 μl of resazurin (Sigma #R^7017) (FAC 100 μM resazurin in RPMI medium without FBS) and incubate plates for a further 1-2 hrs at 37° C. and 5% CO2 • 8. Plates were read in an Envision reader at Ex 560 nm and Em 590 nm • 9. IC50 data is fitted to a non-linear regression equation (log inhibitor vs response-variable slope 4-parameters)
On the technique in general: Alamar Blue is a resazurin reagent that responds to reducing activity.

NLRP3, sequence (Q96P20 whole entry): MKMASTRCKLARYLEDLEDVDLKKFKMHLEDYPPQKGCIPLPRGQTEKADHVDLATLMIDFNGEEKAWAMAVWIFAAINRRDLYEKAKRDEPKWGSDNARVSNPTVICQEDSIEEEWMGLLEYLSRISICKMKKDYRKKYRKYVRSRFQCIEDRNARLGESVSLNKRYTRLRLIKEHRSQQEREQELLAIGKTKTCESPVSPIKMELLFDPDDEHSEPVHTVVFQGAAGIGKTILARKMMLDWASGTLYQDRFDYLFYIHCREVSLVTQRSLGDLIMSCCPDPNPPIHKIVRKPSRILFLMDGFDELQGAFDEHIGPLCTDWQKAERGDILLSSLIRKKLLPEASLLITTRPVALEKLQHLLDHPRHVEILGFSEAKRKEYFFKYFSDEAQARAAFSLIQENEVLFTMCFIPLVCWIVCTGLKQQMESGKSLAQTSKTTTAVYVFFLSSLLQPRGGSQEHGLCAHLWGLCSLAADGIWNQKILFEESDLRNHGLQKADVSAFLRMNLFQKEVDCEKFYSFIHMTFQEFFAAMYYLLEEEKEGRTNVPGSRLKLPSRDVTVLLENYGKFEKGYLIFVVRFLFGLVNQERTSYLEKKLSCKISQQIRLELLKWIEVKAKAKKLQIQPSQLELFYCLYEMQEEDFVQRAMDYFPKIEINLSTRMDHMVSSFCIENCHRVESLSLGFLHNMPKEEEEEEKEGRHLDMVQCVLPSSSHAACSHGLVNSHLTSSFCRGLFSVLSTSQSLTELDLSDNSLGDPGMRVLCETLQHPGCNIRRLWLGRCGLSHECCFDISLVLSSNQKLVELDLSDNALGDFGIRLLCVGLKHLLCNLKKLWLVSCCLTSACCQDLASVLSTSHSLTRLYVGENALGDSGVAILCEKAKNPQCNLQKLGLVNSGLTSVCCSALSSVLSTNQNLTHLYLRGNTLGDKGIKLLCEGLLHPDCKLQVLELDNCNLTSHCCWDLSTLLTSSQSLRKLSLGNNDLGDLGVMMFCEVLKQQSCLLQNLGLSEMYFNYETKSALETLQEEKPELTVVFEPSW

For `CC(c1cc(S(=O)(=O)c2nnc(Nc3c4c(cc5c3CCC5)CCC4)[nH]2)nn1C(C)C)N(C)C` (stereo not drawn) [Example 8, 5-((5-(1-(dimethylamino)ethyl)-1-isopropyl-1H-pyrazol-3-yl)sulfonyl)-N-(1,2,3,5,6,7-hexahydro-s-indacen-4-yl)-4H-1,2,4-triazol-3-amine], the IC50 is at most 1 µM. In the case of `COC1(c2cc(S(=O)(=O)c3nnc(Nc4c5c(cc6c4CCC6)CCC5)[nH]3)nn2C(C)C)COC1` [Example 14, N-(1,2,3,5,6,7-hexahydro-s-indacen-4-yl)-5-((1-isopropyl-5-(3-methoxyoxetan-3-yl)-1H-pyrazol-3-yl)sulfonyl)-4H-1,2,4-triazol-3-amine] it was at most 5 µM; in that of `COC1(c2cc(S(=O)(=O)c3nnc(Nc4c5c(cc6c4CCC6)CCC5)[nH]3)nn2C2CC2)COC1` [Example 16, 5-((1-cyclopropyl-5-(3-methoxyoxetan-3-yl)-1H-pyrazol-3-yl)sulfonyl)-N-(1,2,3,5,6,7-hexahydro-s-indacen-4-yl)-4H-1,2,4-triazol-3-amine], at most 5 µM; in that of `O=S(=O)(c1nnc(Nc2c3c(cc4c2CCC4)CCC3)[nH]1)C1CNC1` [Example 21, 5-(azetidin-3-ylsulfonyl)-N-(1,2,3,5,6,7-hexahydro-s-indacen-4-yl)-4H-1,2,4-triazol-3-amine], at most 10 µM. In the case of `COC1(c2cc([S+]([O-])c3nnc(Nc4c5c(cc6c4CCC6)CCC5)[nH]3)nn2C(C)C)COC1` (stereo not drawn) [Example 25, N-(1,2,3,5,6,7-hexahydro-s-indacen-4-yl)-5-((1-isopropyl-5-(3-methoxyoxetan-3-yl)-1H-pyrazol-3-yl)sulfinyl)-4H-1,2,4-triazol-3-amine] it was at most 10 µM.

The compound `COC1(c2cc([S+]([O-])c3nnc(Nc4c5c(cc6c4CCC6)CCC5)[nH]3)nn2C)COC1` (stereo not drawn) [Example 26, N-(1,2,3,5,6,7-hexahydro-s-indacen-4-yl)-5-((5-(3-methoxyoxetan-3-yl)-1-methyl-1H-pyrazol-3-yl)sulfinyl)-4H-1,2,4-triazol-3-amine] showed an IC50 of at most 10 µM. In the case of `CC(C)c1cc(F)cc(C(C)C)c1Cc1nnc(S(=O)(=O)Cc2ccc(F)cc2)[nH]1` [Example 28, 3-(4-fluoro-2,6-diisopropylbenzyl)-5-((4-fluorobenzyl)sulfonyl)-4H-1,2,4-triazole] it was at most 10 µM; in that of `CC(C)n1ccc(S(=O)(=O)c2nnc(Cc3c4c(cc5c3CCC5)CCC4)[nH]2)n1` [Example 30, 3-((1,2,3,5,6,7-hexahydro-s-indacen-4-yl)methyl)-5-((1-isopropyl-1H-pyrazol-3-yl)sulfonyl)-4H-1,2,4-triazole], at most 10 µM. In the case of `COc1cc(-c2ccc3c(c2Cc2nnc(S(=O)(=O)c4ccn(C(C)C)n4)[nH]2)CCC3)ccn1` [Example 32, 4-(4-((5-((1-isopropyl-H-pyrazol-3-yl)sulfonyl)-4H-1,2,4-triazol-3-yl)methyl)-2,3-dihydro-1H-inden-5-yl)-2-methoxypyridine] it was at most 5 µM; in that of `CC(C)c1cc(F)cc(-c2cccnc2)c1Nc1nnc(S(=O)(=O)c2ccn(C(C)C)n2)[nH]1` [Example 39, N-(4-fluoro-2-isopropyl-6-(pyridin-3-yl)phenyl)-5-((1-isopropyl-1H-pyrazol-3-yl)sulfonyl)-4H-1,2,4-triazol-3-amine], at most 10 µM. The figure for `O=S(=O)(c1ccccc1)c1nc(Nc2c(-c3cccnc3)cc(F)c3c2CCC3)n[nH]1` [Example 41, N-(7-fluoro-5-(pyridin-3-yl)-2,3-dihydro-1H-inden-4-yl)-5-(phenylsulfonyl)-1H-1,2,4-triazol-3-amine] is at most 10 µM; for `CC(C)c1cc(F)cc(C(C)C)c1Nc1nnc(S(=O)(=O)c2ccccc2)[nH]1` [Example 42, N-(4-fluoro-2,6-diisopropylphenyl)-3-(phenylsulfonyl)-1H-1,2,4-triazol-5-amine] it is at most 10 µM. `O=S(=O)(CCCO)c1nnc(Nc2c3c(cc4c2CCC4)CCC3)[nH]1` [Example 47, 3-((5-((1,2,3,5,6,7-hexahydro-s-indacen-4-yl)amino)-4H-1,2,4-triazol-3-yl)sulfonyl)propan-1-ol] came in with a half-maximal inhibitory concentration (IC50) of at most 5 µM. The figure for `O=S(=O)(CCCN1CCOCC1)c1nnc(Nc2c3c(cc4c2CCC4)CCC3)[nH]1` [Example 50, N-(1,2,3,5,6,7-hexahydro-s-indacen-4-yl)-5-((3-morpholinopropyl)sulfonyl)-4H-1,2,4-triazol-3-amine] is at most 5 µM; for `CN1CCN(CCCS(=O)(=O)c2nnc(Nc3c4c(cc5c3CCC5)CCC4)[nH]2)CC1` [Example 51, N-(1,2,3,5,6,7-hexahydro-s-indacen-4-yl)-5-((3-(4-methylpiperazin-1-yl)propyl)sulfonyl)-4H-1,2,4-triazol-3-amine] it is at most 5 µM. In the case of `CN(C)CCN(C)CCCS(=O)(=O)c1nnc(Nc2c3c(cc4c2CCC4)CCC3)[nH]1` [Example 52, N^1-(3-((5-((1,2,3,5,6,7-hexahydro-s-indacen-4-yl)amino)-4H-1,2,4-triazol-3-yl)sulfonyl)propyl)-N^1,N^2,N^2-trimethylethane-1,2-diamine] it was at most 5 µM; in that of `CN1CCC(CN(C)CCCS(=O)(=O)c2nnc(Nc3c4c(cc5c3CCC5)CCC4)[nH]2)CC1` [Example 53, N-(1,2,3,5,6,7-hexahydro-s-indacen-4-yl)-5-((3-(methyl((1-methylpiperidin-4-yl)methyl)amino)propyl)sulfonyl)-4H-1,2,4-triazol-3-amine], at most 5 µM. In the case of `CCNCCCS(=O)(=O)c1nnc(Nc2c3c(cc4c2CCC4)CCC3)[nH]1` [Example 55, 5-((3-(ethylamino)propyl)sulfonyl)-N-(1,2,3,5,6,7-hexahydro-s-indacen-4-yl)-4H-1,2,4-triazol-3-amine] it was at most 5 µM. As to `O=S(=O)(CCCNC1CC1)c1nnc(Nc2c3c(cc4c2CCC4)CCC3)[nH]1` [Example 56, 5-((3-(cyclopropylamino)propyl)sulfonyl)-N-(1,2,3,5,6,7-hexahydro-s-indacen-4-yl)-4H-1,2,4-triazol-3-amine], the IC50 was at most 5 µM. As for `O=S(=O)(CC1CNCCO1)c1nnc(Nc2c3c(cc4c2CCC4)CCC3)[nH]1` (stereo not drawn) [Example 57, N-(1,2,3,5,6,7-hexahydro-s-indacen-4-yl)-3-((morpholin-2-ylmethyl)sulfonyl)-1H-1,2,4-triazol-5-amine], the IC50 is at most 10 µM. In the case of `CN1CCCC(CS(=O)(=O)c2nnc(Nc3c4c(cc5c3CCC5)CCC4)[nH]2)C1` (stereo not drawn) [Example 58, N-(1,2,3,5,6,7-hexahydro-s-indacen-4-yl)-3-(((1-methylpiperidin-3-yl)methyl)sulfonyl)-1H-1,2,4-triazol-5-amine] it was at most 5 µM. In the case of `CN1CCCC1CS(=O)(=O)c1nnc(Nc2c3c(cc4c2CCC4)CCC3)[nH]1` (stereo not drawn) [Example 61, N-(1,2,3,5,6,7-hexahydro-s-indacen-4-yl)-3-(((1-methylpyrrolidin-2-yl)methyl)sulfonyl)-1H-1,2,4-triazol-5-amine] it was at most 10 µM; in that of `O=S(=O)(CC1CCCN1)c1nnc(Nc2c3c(cc4c2CCC4)CCC3)[nH]1` (stereo not drawn) [Example 62, N-(1,2,3,5,6,7-hexahydro-s-indacen-4-yl)-3-((pyrrolidin-2-ylmethyl)sulfonyl)-1H-1,2,4-triazol-5-amine], at most 10 µM; in that of `O=S(=O)(CCc1ccccn1)c1nnc(Nc2c3c(cc4c2CCC4)CCC3)[nH]1` [Example 63, N-(1,2,3,5,6,7-hexahydro-s-indacen-4-yl)-3-((2-(pyridin-2-yl)ethyl)sulfonyl)-1H-1,2,4-triazol-5-amine], at most 1 µM. In the case of `O=S(=O)(c1nnc(Nc2c3c(cc4c2CCC4)CCC3)[nH]1)C1CCCC1` [Example 64, 3-(Cyclopentylsulfonyl)-N-(1,2,3,5,6,7-hexahydro-s-indacen-4-yl)-1H-1,2,4-triazol-5-amine] it was at most 5 µM; in that of `COCCCS(=O)(=O)c1nnc(Nc2c3c(cc4c2CCC4)CCC3)[nH]1` [Example 65, N-(1,2,3,5,6,7-hexahydro-s-indacen-4-yl)-3-((3-methoxypropyl)sulfonyl)-1H-1,2,4-triazol-5-amine], at most 10 µM; in that of `O=S(=O)(CC1CCOC1)c1nnc(Nc2c3c(cc4c2CCC4)CCC3)[nH]1` (stereo not drawn) [Example 66, N-(1,2,3,5,6,7-hexahydro-s-indacen-4-yl)-3-(((tetrahydrofuran-3-yl)methyl)sulfonyl)-1H-1,2,4-triazol-5-amine], at most 10 µM.
